Source: PubChem BioAssay AID588394 (NMMLSC, 2011)
Calls of active or inactive are those of the source.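 Rule for the calls: active = half-maximal effective concentration at most 10 microM and response span at least 30% from a well-fitted curve; inactive = the rest.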

biological target: Rab7 GTPase wild-type (Canis lupus familiaris), GST fusion; assay: Rab7 wildtype GTP binding inhibitors, SAR follow-up, biochemical, dog Rab7, bead multiplex flow cytometry, round 1 (AID 588394); conditions: Bead-based flow cytometry, Bodipy-FL-GTP binding, EDTA

EC50 | SMILES
72 nM | CC1(C)CCc2sc(NC(=S)NC(=O)c3ccccc3)c(C(=O)O)c2C1
46 nM | CC1(C)Cc2c(sc(NC(=S)NC(=O)c3ccccc3Br)c2C(=O)O)CO1
269 nM | CC1(C)Cc2c(sc(NC(=S)NC(=O)c3ccc(Br)cc3)c2C(=O)O)CO1
2280 nM | CC1(C)Cc2c(sc(NC(=S)NC(=O)c3cccc(Br)c3)c2C(=O)O)CO1
56 nM | CC1(C)Cc2c(sc(NC(=S)NC(=O)c3ccccc3F)c2C(=O)O)CO1
55 nM | COc1cccc(C(=O)NC(=S)Nc2sc3c(c2C(=O)O)CC(C)(C)OC3)c1
308 nM | CC1(C)Cc2c(sc(NC(=S)NC(=O)c3cccc(F)c3)c2C(=O)O)CO1
126 nM | COc1ccc(C(=O)NC(=S)Nc2sc3c(c2C(=O)O)CC(C)(C)OC3)cc1

same assay, conditions: Bead-based flow cytometry, Bodipy-FL-GTP binding, EDTA; at 100 µM (top of the series)

percent response, lower = inhibition | SMILES
inactive | Cc1ccc(NC(=O)Nc2sc3c(c2C(=O)O)CCN(C)C3)cc1
inactive | CN1CCc2c(sc(NC(=O)Nc3ccc(F)cc3)c2C(=O)O)C1
inactive | CCOC(=O)c1c(NC(=S)Nc2ccccc2)sc2c1CC(C)(C)OC2
inactive | CCOC(=O)c1c(NC(=O)Nc2ccc(C)cc2)sc2c1CCN(C)C2
inactive | Cc1ccc(Nc2nc3sc4c(c3c(=O)o2)CCN(C)C4)cc1
inactive | CCOC(=O)c1c(NC(=S)NC(=O)c2ccccc2)sc2ccccc12
inactive | COC(=O)c1c(N)sc2c1CC(C)(C)OC2
inactive | CC1(C)Cc2c(sc(NC(=S)Nc3ccccc3)c2C(=O)O)CO1
inactive | CCOC(=O)c1c(NC(=O)NC(C)(C)C)sc2c1CCN(C)C2
inactive | CCOC(=O)c1c(N)sc2ccccc12
inactive | CCOC(=O)c1c(NC(=O)Nc2ccc(F)cc2)sc2c1CCN(C)C2
inactive | CC1(C)Cc2c(sc(NC(=O)Cc3ccccc3)c2C(=O)O)CO1
inactive | CN1CCc2c(sc3nc(Nc4ccc(F)cc4)oc(=O)c23)C1
inactive | CC(C)(C)OC(=O)c1c(NC(=S)NC(=O)c2ccccc2)sc2c1CCOC2
